Experimental data reported in US10730885B1, “Coumarin derivatives” (KING SAUD UNIVERSITY, priority 2019, dated 2020).
≈ marks a conversion by molar mass, not a printed value. Entries after “also recorded” stand apart in the source; their conditions may differ. Like-named read-outs stand apart in the source and are kept apart here.

Assays:
[1] = test system: Staphylococcus aureus ATCC 29213; assay: Agar well diffusion, primary antimicrobial screening; format: cell-based; settings: for zone of inhibition at 10000 µg/mL: Staphylococcus aureus, ATCC29213, S. aureus ATCC 29213, 100 μL of 10 mg/ml in DMSO, 24 h, read-out: Inhibition Diameter Zone SA; for antibacterial activity compared with ciprofloxacin: S. aureus
Source text: (§1) The newly synthesized compounds were individually tested for their in vitro antimicrobial activity against the standard bacteria strains of American Type Culture Collection (ATCC), namely, Staphylococcus aureus ATCC 29213, Bacillus subtilis ATCC 6633, Bacillus megaterium ATCC 9885 (Gram-positive), Escherichia coli ATCC 2592 and Pseudomonas aeruginosa ATCC 27953 (Gram-negative). In addition, they were microbiologically tested against the locally isolated Saccharomyces cerevisiae (yeast) and the standard strain of Agricultural Research Service Culture Collection (NRRL) of the yeast like pathogenic fungus Candida albicans NRRL Y-477. The primary screening was carried out using the agar well diffusion method using nutrient agar (NA) medium and Sabourand dextrose agar (SDA) medium for pathological tested bacteria and yeast, respectively.
(§2) Antimicrobial tests were carried out by the agar well diffusion method using 100 μL of suspension containing 1×10^8 CFU/mL of pathological tested bacteria and 1×10^6 CFU/ml of yeast spread on NA and SDA, respectively. After the media was cooled and solidified, wells (10 mm in diameter) were made in the solidified agar and loaded with 100 μL of tested compound solution prepared by dissolving 10 mg of the chemical compound in one ml of dimethyl sulfoxide (DMSO). The inculcated plates were then incubated for 24 h at 37° C. for bacteria and yeast. Negative controls were prepared using DMSO employed for dissolving the tested compound. Ciprofloxacin (10 mg/ml) and ketoconazole (10 mg/ml) were used as standard for antibacterial and antifungal activity, respectively. After incubation time, antimicrobial activity was evaluated by measuring the zone of inhibition against the test organisms and compared with that of the standard. Antimicrobial activities were expressed as inhibition diameter zones in millimeters (mm). The experiment was carried out in triplicate and the average zone of inhibition was calculated.

[2] = test system: Saccharomyces cerevisiae (local isolate); assay: as above; format: cell-based; settings: for zone of inhibition at 10000 µg/mL: Saccharomyces cerevisiae, 24 h, read-out: Inhibition Diameter Zone SC; for antimicrobial activity compared with ketoconazole: S. cerevisiae
Source text: as §1, §2

[3] = test system: Candida albicans NRRL Y-477; assay: as above; format: cell-based; settings: for zone of inhibition at 10000 µg/mL: Candida albicans, NRRLY477, C. albicans NRRL Y-477, 100 μL of 10 mg/ml in DMSO, 24 h, read-out: Inhibition Diameter Zone CA; for antifungal activity compared with reference drug: C. albicans
Source text: as §1, §2

[4] = DPPH microplate radical scavenging antioxidant assay; format: biochemical; settings: for IC50: DPPH, 30 min, mean ± SD (n = 3)
Description: The antioxidant activity of the synthesized compounds was measured in terms of hydrogen-donating or radical scavenging ability using the DPPH microplate-based method. Absorbance measurement was obtained using Microplate/cuvette reader (Spectramax M5, Molecular Devices, California, USA). Reference standard compound ascorbic acid was used as the positive control for this assay at concentrations ranging from 1.563 to 200 μg/mL. Test samples were prepared at a starting concentration of 200 μg/mL after mixing with 100 μl of 0.2 mM DPPH methanolic solution. A series of concentrations were tested for the samples in order to determine the 50% inhibitory concentration (IC50). Samples were incubated with DPPH in the dark for 30 min at room temperature (25° C.). The DPPH solution in methanol was prepared daily and stored in a flask covered with aluminum foil. DPPH radicals have an absorption maximum (λmax) at 515 nm, in which the absorbance values were measured and converted into percentage of antioxidant activity.
Methanolic DPPH solution without antioxidant was applied as control and background control was samples in methanol only. IC50 was determined using Graphpad Prism 7 (Graphpad Software Inc. CA, USA). The percentage inhibition was calculated by using the formula:
The assay was carried out in triplicate and performed as much as possible in an area protected against light. The data points are presented as the mean±standard deviation (SD) (n=3).

[5] = test system: formaldehyde-induced paw oedema; assay: Formaldehyde-induced rat paw oedema; format: in vivo; settings: 2.5 mg/kg orally
Description: Testing was performed to determine formaldehyde-induced rat paw oedema (edema). For the formaldehyde-induced rat paw oedema (edema) test, female Wister albino rats (150-175 g) were used for determination of the anti-inflammatory activities. The rats were obtained from the animal house colony of the National Organization for Drug Control and Research (NODCAR), Egypt. The animals were kept in standard plastic cages in an air conditioned room at 22±3° C., 55±5% humidity and supplied with standard laboratory diet and water ad libitum. All animal experimental procedures were carried out according to the Ethics Committee of the National Research Centre, Cairo, Egypt and followed the guidelines of the National Institutes of Health, Guide for Care and Use of Laboratory Animals (1985).
The percentage protection against inflammation was calculated by using following formula:
[formula] where Vc is the mean percentage increase in paw volume in the control and Vd is the mean percentage increase in paw volume after injection of the test compound. Values were expressed as mean±standard error (S.E.). Comparisons between mean values were carried out using two-way analysis of variance (ANOVA), followed by Tukey Kramer multiple comparisons test for all acute toxicity study tests. […] was considered significant. Graph pad prism software (version 6) was used to carry out all statistical tests.

trypsin = assay: Proteinase inhibitory activity (trypsin/casein); format: biochemical; settings: for % Inhibition of proteinase activity: 250 μg/ml, mean ± SD (n = 3)
Description: For proteinase inhibitory activity, the reaction mixture (2 ml) contained 0.06 mg trypsin, 20 mM Tris HCl buffer (pH 7.4) and 1 ml test sample (250 μg/ml for each compound). The mixture was incubated for 5 min and then 1 ml of 0.8% (w/v) casein was added. The mixture was incubated for an additional 20 min. 1 ml of 10% perchloric acid was added to arrest the reaction. The cloudy suspension was centrifuged, and the absorbance of the supernatant was read at 280 nm. Reference standard compound aspirin was used as the positive control for this assay. The experiment was performed in triplicate. Percentage inhibition of […] was calculated by using the following formula:
[formula] where Acontrol is the absorbance of the control reaction and Atest is the absorbance of the control reaction with sample.

[6] = test system: Bacillus megaterium ATCC 9885; assay: Agar well diffusion, primary antimicrobial screening; format: cell-based
Source text: as §1, §2

[7] = test system: Escherichia coli ATCC 2592; assay: as above; format: cell-based; settings: for zone of inhibition at 10000 µg/mL: Escherichia coli, ATCC2592, E. coli ATCC 2592, 100 μL of 10 mg/ml in DMSO, 24 h, read-out: Inhibition Diameter Zone EC
Source text: as §1, §2

[8] = test system: Bacillus subtilis ATCC 6633; assay: as above; format: cell-based; settings: for antibacterial activity compared with reference drug: B. subtilis
Source text: as §1, §2

[9] = test system: Pseudomonas aeruginosa ATCC 27953; assay: as above; format: cell-based; settings: for zone of inhibition at 10000 µg/mL: Pseudomonas aeruginosa, ATCC27953, P. aeruginosa ATCC 27953, 100 μL of 10 mg/ml in DMSO, 24 h, read-out: Inhibition Diameter Zone PA
Source text: as §1, §2

tested microorganisms = assay: Agar well diffusion, summary over the tested microorganisms; format: cell-based; settings: for antimicrobial activity compared with standard antimicrobials (ciprofloxacin and ketoconazole): against one or more microorganisms
Source text: as §1, §2

[10] = S. cerevisiae local isolate, 100 μL of 10 mg/ml in DMSO

| SMILES | zone of inhibition at 10000 µg/mL [1] [mm] | zone of inhibition at 10000 µg/mL [3] [mm] | IC50 [4] | melting point [°C] | in vivo anti-inflammatory activity [5] | in vitro anti-proteinase activity compared with aspirin (trypsin) | % Inhibition of proteinase activity (trypsin) [%] | zone of inhibition at 10000 µg/mL [7] [mm] | zone of inhibition at 10000 µg/mL [2, 10] [mm] | zone of inhibition at 10000 µg/mL [9] [mm] | antibacterial activity compared with ciprofloxacin [1] | antimicrobial activity compared with ketoconazole [2] | antibacterial activity compared with reference drug [8] | antimicrobial activity compared with standard antimicrobials (ciprofloxacin and ketoconazole) (tested microorganisms) | antifungal activity compared with reference drug [3] | further results |
| --- | --- | --- | --- | --- | --- | --- | --- | --- | --- | --- | --- | --- | --- | --- | --- | --- |
| Cc1ccc2oc(=O)c3c(c2c1)OC(N)=C(C(N)=O)C3c1ccc([N+](=O)[O-])cc1 (racemic) [Compound 6a, (±)-2-amino-9-methyl-4-(4-nitrophenyl)-5-oxo-4H, 5H-pyrano[3,2-c]chromene-3-carboxamide] | < 15 | < 15 | — ((—): inactive (IC50 > 200 μg/mL)) | 142 to 144 | significant in vivo anti-inflammatory activity; also recorded: significant protection against inflammation | more potent | 79.72±4.51 | – | – | – | – | – | – | – | – | zone of inhibition at 10000 µg/mL [2]: < 15 mm |
| Cc1ccc2oc(=O)c(S(=O)(=O)Nc3ccc(S(N)(=O)=O)cc3)c(O)c2c1 [Compound 10b, 4-Hydroxy-6-methyl-2-oxo-N-(4-sulfamoylphenyl)-2H-chromene-3-sulfonamide] | < 15 | < 15 | 61.78 ± 2.719 µg/mL (≈ 151 µM) | 241 to 243 | – | – | 5.93 ± 2.11 | < 15 | < 15 | < 15 | – | – | – | – | – | zone of inhibition at 10000 µg/mL ([6]; Priestia megaterium, ATCC9885, B. megaterium ATCC 9885, 100 μL of 10 mg/ml in DMSO, 24 h, read-out: Inhibition Diameter Zone BM): < 15 mm; zone of inhibition at 10000 µg/mL ([8]; Bacillus subtilis, ATCC6633, B. subtilis ATCC 6633, 100 μL of 10 mg/ml in DMSO, 24 h, read-out: Inhibition Diameter Zone BS): < 15 mm; growth inhibition zones (tested microorganisms; against one or more of the tested microorganisms): < 15 mm |
| Cc1ccc2oc(=O)c(S(=O)(=O)Nc3ccc(S(=O)(=O)Nc4nccs4)cc3)c(O)c2c1 [Compound 10f, 4-hydroxy-6-methyl-2-oxo-N-(4-(N-(thiazol-2-yl)sulfamoyl)phenyl)-2H-chromene-3-sulfonamide] | – | – | 83.52 ± 1.849 µg/mL (≈ 169 µM) | 167 to 169 | significant protection against inflammation | as potent | 43.88 ± 5.6 | – | – | – | – | – | – | – | – | – |
| O=c1oc2ccc(Cl)cc2c(O)c1S(=O)(=O)Nc1ccc(O)cc1 [Compound 11c, 6-Chloro-4-hydroxy-N-(4-hydroxyphenyl)-2-oxo-2H-chromene-3-sulfonamide] | – | – | 3.87 ± 0.409 µg/mL (≈ 10.5 µM) | 250 to 251 | significant protection against inflammation | as potent | – | – | 32 | – | higher than the control ciprofloxacin | higher than that of the corresponding control drug | comparable antibacterial activities to the standard | equal to or higher than the standard antimicrobials | – | antioxidant activity ([4]; overview): particularly high antioxidant activity |
| CC(=O)c1ccc(NS(=O)(=O)c2c(O)c3cc(Cl)ccc3oc2=O)cc1 [Compound 11e, N-(4-acetylphenyl)-6-chloro-4-hydroxy-2-oxo-2H-chromene-3-sulfonamide] | < 15 | < 15 | 32.85 ± 1.322 µg/mL (≈ 83.4 µM) | 238 to 240 | – | – | – | < 15 | < 15 | < 15 | – | – | – | – | higher antifungal activity | % inhibition of rat paw oedema ([5]; one hour after induction of inflammation): 9.45% |
| O=C(/C=C/c1ccc(Cl)cc1)c1ccc(NS(=O)(=O)c2c(O)c3cc(Cl)ccc3oc2=O)cc1 [Compound 12c, (E)-6-chloro-N-(4-(3-(4-chlorophenyl)acryloyl)phenyl)-4-hydroxy-2-oxo-2H-chromene-3-sulfonamide] | – | – | — ((—): inactive (IC50 > 200 μg/mL)) | 157 to 159 | – | – | 17.6 ± 6.86 | – | 31 | – | equal to ciprofloxacin | higher than that of the corresponding control drug | comparable antibacterial activities to the standard | equal to or higher than the standard antimicrobials | higher antifungal activity | antibacterial activity compared with ciprofloxacin ([6]; B. megaterium): comparable to ciprofloxacin; antibacterial activity compared with ciprofloxacin ([7]; E. coli): comparable antibacterial potential; antibacterial activity compared with standard ([9]; P. aeruginosa): comparable antibacterial activity to the standard |
